Compound	melting point
CCC(=O)N1CCc2[nH]nc(C(=O)N3CCC(c4ccccc4C(F)(F)F)CC3)c2C1 [Example 44, 1-(3-(4-(2-(Trifluoromethyl)phenyl)piperidine-1-carbonyl)-6,7-dihydro-1H-pyrazolo[4,3-c]pyridin-5(4H)-yl)propan-1-one]	153 to 155 °C
CC(C)CN1CCc2[nH]nc(C(=O)N3CCC(c4ccccc4C(F)(F)F)CC3)c2C1 [Example 45, (5-Isobutyl-4,5,6,7-tetrahydro-1H-pyrazolo[4,3-c]pyridin-3-yl)(4-(2-(trifluoromethyl)phenyl)piperidin-1-yl)methanone]	105 to 107 °C
O=C(c1n[nH]c2c1CN(C1COC1)CC2)N1CCC(c2ccccc2C(F)(F)F)CC1 [Example 46, (5-(Oxetan-3-yl)-4,5,6,7-tetrahydro-1H-pyrazolo[4,3-c]pyridin-3-yl)(4-(2-(trifluoromethyl)phenyl)piperidin-1-yl)methanone]	107 to 110 °C
O=C(CC(F)(F)F)N1CCc2[nH]nc(C(=O)N3CCC(c4ccccc4C(F)(F)F)CC3)c2C1 [Example 47, 3,3,3-Trifluoro-1-(3-(4-(2-(trifluoromethyl)phenyl)piperidine-1-carbonyl)-6,7-dihydro-1H-pyrazolo[4,3-c]pyridin-5(4H)-yl)propan-1-one]	127 to 130 °C
COCC(=O)N1CCc2[nH]nc(C(=O)N3CCC(c4ccccc4C(F)(F)F)CC3)c2C1 [Example 48, 2-Methoxy-1-(3-(4-(2-(trifluoromethyl)phenyl)piperidine-1-carbonyl)-6,7-dihydro-1H-pyrazolo[4,3-c]pyridin-5(4H)-yl)ethanone]	192 to 194 °C
CCC(=O)N1CCc2c(C(=O)N3CCC(c4ccccc4C(F)(F)F)CC3)n[nH]c2C1 [Example 49, 1-(3-(4-(2-(Trifluoromethyl)phenyl)piperidine-1-carbonyl)-4,5-dihydro-1H-pyrazolo[3,4-c]pyridin-6(7H)-yl)propan-1-one]	162 to 164 °C
CC(C)S(=O)(=O)N1CCc2c(C(=O)N3CCC(c4ccccc4C(F)(F)F)CC3)n[nH]c2C1 [Example 51, (6-(Isopropylsulfonyl)-4,5,6,7-tetrahydro-1H-pyrazolo[3,4-c]pyridin-3-yl)(4-(2-(trifluoromethyl)phenyl)piperidin-1-yl)methanone]	220 to 222 °C
CC(C)C(=O)N1CCc2c(C(=O)N3CCC(c4ccccc4C(F)(F)F)CC3)n[nH]c2C1 [Example 52, 2-Methyl-1-(3-(4-(2-(trifluoromethyl)phenyl)piperidine-1-carbonyl)-4,5-dihydro-1H-pyrazolo[3,4-c]pyridin-6(7H)-yl)propan-1-one]	200 to 203 °C
CCC(=O)N1Cc2[nH]nc(C(=O)N3CCC(c4ccccc4C(F)(F)F)CC3)c2C1 [Example 53, 1-(3-(4-(2-(Trifluoromethyl)phenyl)piperidine-1-carbonyl)pyrrolo[3,4-c]pyrazol-5(1H,4H,6H)-yl)propan-1-one]	216 to 219 °C
CC(C)C(=O)N1Cc2[nH]nc(C(=O)N3CCC(c4ccccc4C(F)(F)F)CC3)c2C1 [Example 54]	192 to 195 °C
CC(C)CC(=O)N1Cc2[nH]nc(C(=O)N3CCC(c4ccccc4C(F)(F)F)CC3)c2C1 [Example 55, 3-Methyl-1-(3-(4-(2-(trifluoromethyl)phenyl)piperidine-1-carbonyl)pyrrolo[3,4-c]pyrazol-5(1H,4H,6H)-yl)butan-1-one]	200 to 203 °C
CC(C)(C)C(=O)N1Cc2[nH]nc(C(=O)N3CCC(c4ccccc4C(F)(F)F)CC3)c2C1 [Example 56, 2,2-Dimethyl-1-(3-(4-(2-(trifluoromethyl)phenyl)piperidine-1-carbonyl)pyrrolo[3,4-c]pyrazol-5(1H,4H,6H)-yl)propan-1-one]	229 to 232 °C
Cc1cnc2cc(C(=O)N3CCC(c4ccccc4C(F)(F)F)CC3)[nH]c2c1 [Example 70, (6-Methyl-1H-pyrrolo[3,2-b]pyridin-2-yl)(4-(2-(trifluoromethyl)phenyl)piperidin-1-yl)methanone]	254 to 258 °C
O=C(c1nc2ncccc2[nH]1)N1CCC(c2ccccc2C(F)(F)F)CC1 [Example 71, (1H-Imidazo[4,5-b]pyridin-2-yl)(4-(2-(trifluoromethyl)phenyl)piperidin-1-yl)methanone]	249 to 251 °C
Cn1c(C(=O)N2CCC(c3ccccc3C(F)(F)F)CC2)cc2ncccc21 [Example 74, (1-Methyl-1H-pyrrolo[3,2-b]pyridin-2-yl)(4-(2-(trifluoromethyl)phenyl)piperidin-1-yl)methanone]	159 to 163 °C
O=C(c1cc2ncc(-n3ccnc3)cc2[nH]1)N1CCC(c2ccccc2C(F)(F)F)CC1 [Example 75, (6-(1H-Imidazol-1-yl)-1H-pyrrolo[3,2-b]pyridin-2-yl)(4-(2-(trifluoromethyl)phenyl)piperidin-1-yl)methanone]	> 270 °C
O=C(c1cc2ncc(N3CCOCC3)cc2[nH]1)N1CCC(c2ccccc2C(F)(F)F)CC1 [Example 76, (6-Morpholino-1H-pyrrolo[3,2-b]pyridin-2-yl)(4-(2-(trifluoromethyl)phenyl)piperidin-1-yl)methanone]	268 to 272 °C (dec.)
O=C(c1cc2ncc(Cl)cc2[nH]1)N1CCC(c2ccccc2C(F)(F)F)CC1 [Example 77, (6-Chloro-1H-pyrrolo[3,2-b]pyridin-2-yl)(4-(2-(trifluoromethyl)phenyl)piperidin-1-yl)methanone]	258 to 261 °C

Compound	melting point
O=C(c1ccnnc1)N1CCC(c2ccccc2C(F)(F)F)CC1 [Example 80, Pyridazin-4-yl(4-(2-(trifluoromethyl)phenyl)piperidin-1-yl)methanone]	159 to 162 °C
O=C(c1ccc2nccn2n1)N1CCC(c2ccccc2C(F)(F)F)CC1 [Example 81, Imidazo[1,2-b]pyridazin-6-yl(4-(2-(trifluoromethyl)phenyl)piperidin-1-yl)methanone]	152 to 155 °C
O=C(c1cccnn1)N1CCC(c2ccccc2C(F)(F)F)CC1 [Example 82, Pyridazin-3-yl(4-(2-(trifluoromethyl)phenyl)piperidin-1-yl)methanone]	125 to 127 °C
O=C(c1ccc(Cl)nn1)N1CCC(c2ccccc2C(F)(F)F)CC1 [Example 83, (6-Chloropyridazin-3-yl)(4-(2-(trifluoromethyl)phenyl)piperidin-1-yl)methanone]	170 to 172 °C
Cc1nnsc1C(=O)N1CCC(c2ccccc2C(F)(F)F)CC1 [Example 84, (4-Methyl-1,2,3-thiadiazol-5-yl)(4-(2-(trifluoromethyl)phenyl)piperidin-1-yl)methanone]	141 to 143 °C
Cc1ccc(C(=O)N2CCC(c3ccccc3C(F)(F)F)CC2)nn1 [Example 85, (6-Methylpyridazin-3-yl)(4-(2-(trifluoromethyl)phenyl)piperidin-1-yl)methanone]	144 to 148 °C
COc1ccc(C(=O)N2CCC(c3ccccc3C(F)(F)F)CC2)nn1 [Example 86, (6-Methoxypyridazin-3-yl)(4-(2-(trifluoromethyl)phenyl)piperidin-1-yl)methanone]	122 to 125 °C
O=C(c1cnccn1)N1CCC(c2ccccc2C(F)(F)F)CC1 [Example 87, Pyrazin-2-yl(4-(2-(trifluoromethyl)phenyl)piperidin-1-yl)methanone]	109 to 111 °C
O=C(c1cnn[nH]1)N1CCC(c2ccccc2C(F)(F)F)CC1 [Example 88, (1H-1,2,3-Triazol-5-yl)(4-(2-(trifluoromethyl)phenyl)piperidin-1-yl)methanone]	235 to 239 °C (dec.)
Cc1nc2ccc(Cl)nn2c1C(=O)N1CCC(c2ccccc2C(F)(F)F)CC1 [Example 89, (6-Chloro-2-methylimidazol[1,2-b]pyridazin-3-yl)(4-(2-(trifluoromethyl)phenyl)piperidin-1-yl)methanone]	147 to 150 °C
O=C(c1ccn[nH]1)N1CCC(c2ccccc2C(F)(F)F)CC1 [Example 90, (1H-pyrazol-5-yl)(4-(2-(trifluoromethyl)phenyl)piperidin-1-yl)methanone]	167 to 170 °C
NC(=O)c1ccc(C(=O)N2CCC(c3ccccc3C(F)(F)F)CC2)cc1 [Example 92, 4-(4-(2-(Trifluoromethyl)phenyl)piperidine-1-carbonyl)benzamide]	188 to 190 °C
NC(=O)c1cccc(C(=O)N2CCC(c3ccccc3C(F)(F)F)CC2)c1 [Example 93, 3-(4-(2-(Trifluoromethyl)phenyl)piperidine-1-carbonyl)benzamide]	192 to 194 °C
CC(=O)N1CCCC1C(=O)N1CCC(c2ccccc2C(C)(C)C)CC1 (stereo not drawn) [Example 97, 1-(2-(4-(2-(Tert-butyl)phenyl)piperidine-1-carbonyl)pyrrolidin-1-yl)ethanone]	50 to 60 °C
CC(C)(C)c1ccccc1C1CCN(C(=O)[C@H]2C[C@@H](O)CN2)CC1 [Example 98, (4-(2-(Tert-butyl)phenyl)piperidin-1-yl)((2R,4R)-4-hydroxypyrrolidin-2-yl)methanone]	65 to 75 °C
CC(C)(C)c1ccccc1C1CCN(C(=O)C2CCCS2(=O)=O)CC1 (stereo not drawn) [Example 100, (4-(2-(tert-butyl)phenyl)piperidin-1-yl)(1,1-dioxidotetrahydrothiophen-2-yl)methanone]	80 to 84 °C
NS(=O)(=O)Oc1ccccc1CC(=O)N1CCC(c2ccccc2C(F)(F)F)CC1 [Example 102, 2-(2-Oxo-2-(4-(2-(trifluoromethyl)phenyl)piperidin-1-yl)ethyl)phenylsulfamate]	170 to 173 °C
CC1(C(=O)N2CCC(c3ccccc3C(F)(F)F)CC2)COC1 [Example 103, (3-Methyloxetan-3-yl)(4-(2-(trifluoromethyl)phenyl)piperidin-1-yl)methanone]	100 to 102 °C
